Key:
[1] = molecular target: Multidrug resistance protein 1a (Rattus norvegicus) (UniProt Q6PSM0); experiment: (§1) TP_TRANSPORTER: Northern blot in vivo Wistar rat; format: functional, organism-based
[2] = molecular target: T1, Solute carrier organic anion transporter family member 1A1 (Rattus norvegicus, UniProt P46720); experiment: as §1; format: functional, organism-based
T1 sequence (P46720 whole entry): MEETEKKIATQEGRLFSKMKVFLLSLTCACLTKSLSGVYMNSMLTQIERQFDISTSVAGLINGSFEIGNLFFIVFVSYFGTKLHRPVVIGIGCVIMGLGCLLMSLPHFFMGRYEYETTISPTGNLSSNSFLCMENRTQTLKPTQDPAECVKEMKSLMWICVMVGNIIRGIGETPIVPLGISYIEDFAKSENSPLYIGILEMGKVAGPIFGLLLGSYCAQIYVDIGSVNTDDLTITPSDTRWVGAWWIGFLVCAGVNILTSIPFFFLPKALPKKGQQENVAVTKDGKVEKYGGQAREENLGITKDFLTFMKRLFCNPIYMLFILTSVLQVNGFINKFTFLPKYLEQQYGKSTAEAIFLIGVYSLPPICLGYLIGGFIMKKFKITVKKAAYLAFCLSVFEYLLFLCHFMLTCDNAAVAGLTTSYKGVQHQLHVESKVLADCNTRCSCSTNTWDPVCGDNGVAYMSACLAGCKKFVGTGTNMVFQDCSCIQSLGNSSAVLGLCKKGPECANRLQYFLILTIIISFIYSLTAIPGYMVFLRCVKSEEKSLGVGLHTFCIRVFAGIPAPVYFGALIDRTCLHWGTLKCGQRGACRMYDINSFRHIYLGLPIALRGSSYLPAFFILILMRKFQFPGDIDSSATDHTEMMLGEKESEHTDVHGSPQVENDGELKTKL

Multidrug resistance protein 1a (Rattus norvegicus), sequence (Q6PSM0 as listed by the source): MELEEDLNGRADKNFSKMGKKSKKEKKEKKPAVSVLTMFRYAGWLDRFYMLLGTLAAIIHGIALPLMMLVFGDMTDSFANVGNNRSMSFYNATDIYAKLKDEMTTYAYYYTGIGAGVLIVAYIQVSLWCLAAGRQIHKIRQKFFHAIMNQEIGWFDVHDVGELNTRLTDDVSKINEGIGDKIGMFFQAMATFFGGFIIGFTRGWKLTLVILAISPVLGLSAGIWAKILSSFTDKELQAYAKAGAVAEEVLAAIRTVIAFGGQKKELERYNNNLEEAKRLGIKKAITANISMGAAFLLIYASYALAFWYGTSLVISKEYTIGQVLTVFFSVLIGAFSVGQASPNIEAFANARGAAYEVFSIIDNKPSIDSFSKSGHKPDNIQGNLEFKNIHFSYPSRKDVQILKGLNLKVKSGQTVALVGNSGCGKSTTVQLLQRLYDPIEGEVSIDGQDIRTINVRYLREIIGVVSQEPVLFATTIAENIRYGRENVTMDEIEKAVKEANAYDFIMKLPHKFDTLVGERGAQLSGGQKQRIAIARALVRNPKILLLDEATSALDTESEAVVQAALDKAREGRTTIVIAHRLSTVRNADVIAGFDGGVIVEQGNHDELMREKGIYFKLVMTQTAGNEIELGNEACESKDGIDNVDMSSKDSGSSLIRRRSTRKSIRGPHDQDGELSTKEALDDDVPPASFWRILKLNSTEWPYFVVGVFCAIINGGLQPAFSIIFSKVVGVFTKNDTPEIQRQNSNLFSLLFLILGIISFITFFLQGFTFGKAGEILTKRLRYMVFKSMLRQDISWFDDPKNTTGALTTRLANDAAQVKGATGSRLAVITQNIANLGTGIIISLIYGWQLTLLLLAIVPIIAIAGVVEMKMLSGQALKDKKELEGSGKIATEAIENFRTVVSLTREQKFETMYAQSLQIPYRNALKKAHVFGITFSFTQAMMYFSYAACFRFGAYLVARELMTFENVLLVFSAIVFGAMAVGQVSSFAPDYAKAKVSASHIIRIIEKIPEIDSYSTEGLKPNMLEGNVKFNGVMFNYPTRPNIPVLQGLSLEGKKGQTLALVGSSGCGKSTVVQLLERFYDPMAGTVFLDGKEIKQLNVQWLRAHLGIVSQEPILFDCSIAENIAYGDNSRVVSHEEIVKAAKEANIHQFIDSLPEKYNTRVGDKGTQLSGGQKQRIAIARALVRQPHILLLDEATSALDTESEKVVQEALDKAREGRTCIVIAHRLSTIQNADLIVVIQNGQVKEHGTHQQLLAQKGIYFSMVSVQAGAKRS

Question: What does the source list for `O=C=Nc1cccc2ccccc12` [alpha-naphthylisocyanate]?
Answer: Activity [1]: inducer [+]; Activity [2]: inducer [+]

Source: ChEMBL document CHEMBL2073790, “TP-search Transporter Database” (Jpn Pharmacol Ther, 1998)
